Experimental findings from BindingDB's records for patent WO2022070068 (JANSSEN BIOTECH, INC., 2022) are described below.

Structures are written as SMILES. “And” between values parts separate entries of the source, which are not always exact repeats. Equal entries are not always repeated.

The target in this experiment is Dihydroorotate dehydrogenase (quinone), mitochondrial (Homo sapiens, UniProt Q02127). The experiment in a line: DHODH enzymatic assay. As for the experimental part:
To detect DHODH enzyme activities, dichloroindophenol (DCIP) is added as the final electron acceptor in the assay. DCIP can accept electrons from the reduced coenzyme Q generated in the assay, or from dihydroorotate (DHO) via FMN by binding presumably to the ubiquinone pocket. DCIP solutions are blue, with an intense absorbance around 600 nm, but becomes colorless upon reduction (J. Biol. Chem. (1986) 261, 11386). The assay buffer contained […], pH 7.5, 150 mM NaCl, 0.5 mM EDTA, and 0.1% Triton X-100 in MilliQ water. Substrate consisting of 20 mM DHO, 5mM CoQ6, and 1mM DCIP in assay buffer, initiates the reaction. The assay is run in end-point mode by quenching the reaction with the potent DHODH inhibitor brequinar. Absorbance measurements were obtained using the BMG Phera Star plate-reading spectrophotomer. Purified human DHODH was purchased from Proteros (cat. No. PR-0044). Chemicals were purchased from Sigma-Aldrich, Teknova, and Avanti Polar Lipids. Liquid handling was performed using Labcyte Echo and Formulatrix Tempest.

Sequence of Dihydroorotate dehydrogenase (quinone), mitochondrial (Q02127 whole entry): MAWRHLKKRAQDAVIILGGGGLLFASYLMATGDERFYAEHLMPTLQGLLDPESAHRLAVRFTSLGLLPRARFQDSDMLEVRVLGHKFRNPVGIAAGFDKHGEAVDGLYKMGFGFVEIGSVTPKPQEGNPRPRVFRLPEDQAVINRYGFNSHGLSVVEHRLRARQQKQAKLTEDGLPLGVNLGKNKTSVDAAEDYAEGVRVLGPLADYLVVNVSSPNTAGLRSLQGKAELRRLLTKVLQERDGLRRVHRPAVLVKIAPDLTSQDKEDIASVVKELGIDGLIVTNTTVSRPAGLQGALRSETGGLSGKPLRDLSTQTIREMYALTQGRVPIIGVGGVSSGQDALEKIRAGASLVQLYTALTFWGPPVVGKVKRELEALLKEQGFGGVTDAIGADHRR

`Cc1ccccc1-n1cc(C(C)C)c2cc(-c3nc(C(C)O)n(C)n3)c(F)cc2c1=O` (racemic) [WO2022070068, Example 5] registered an IC50 of 1.1 nM. That is a single-digit nanomolar value.

`Cc1ccccc1-n1cc(C(C)C)c2cc(-c3cnc(C4CC4)cn3)c(F)cc2c1=O` [WO2022070068, Example 1] displayed an IC50 of 2.6 nM. This IC50 is about 2.4-fold higher than that of the molecule before.

Molecule `Cc1ccccc1-n1cc(C(C)C)c2cc(-c3ccc(C)c(N)n3)c(F)cc2c1=O` [WO2022070068, Example 2] returned an IC50 of 0.18 nM.

`Cc1cnc(-c2cc3c(C(C)C)cn(-c4ccccc4C)c(=O)c3cc2F)cc1N` [WO2022070068, Example 3] returned an IC50 of 3.6 nM.

As for `CC(=O)c1nc(-c2cc3c(C(C)C)cn(-c4ccccc4C)c(=O)c3cc2F)nn1C` [WO2022070068, Example 6], the IC50 was found to be 1.7 nM.

In the case of `Cc1ccccc1-n1cc(C(C)C)c2cc(-c3cn(C)c(CO)n3)c(F)cc2c1=O` [WO2022070068, Example 8], the midpoint of inhibition, the IC50, lay at 1.2 nM.

`Cc1ccccc1-n1cc(C(C)C)c2cc(-c3nc(CO)n(C)n3)c(F)cc2c1=O` [WO2022070068, Example 9] yielded an IC50 of 2.6 nM.

`Cc1ccccc1-n1cc(C(C)C)c2cc(-c3cn(C)c([C@H](C)O)n3)c(F)cc2c1=O` [WO2022070068, Example 10] had an IC50 of 0.73 nM.

`Cc1ccccc1-n1cc(C(C)C)c2cc(-c3cn(C)c([C@@H](C)O)n3)c(F)cc2c1=O` [WO2022070068, Example 11] yielded an IC50 of 0.51 nM.

For the molecule `Cc1ccccc1-n1cc(C(C)C)c2cc(-c3nc([C@@H](C)O)n(C)n3)c(F)cc2c1=O` [WO2022070068, Example 12], the IC50 is 1.6 nM and 2 nM.

As for `Cc1ccccc1-n1cc(C(C)C)c2cc(-c3nc([C@H](C)O)n(C)n3)c(F)cc2c1=O` [WO2022070068, Example 13], the IC50 is 0.48 nM and 1.1 nM.

As for `Cc1ccccc1-n1nc(C(C)C)c2cc(-c3cn(C)c(C(C)(C)O)n3)c(F)cc2c1=O` [WO2022070068, Example 14], inhibition was half-maximal at 0.45 nM (IC50).

The molecule `Cc1ccccc1-n1nc(C(C)C)c2cc(-c3cn(C)c([C@@H](C)O)n3)c(F)cc2c1=O` [WO2022070068, Example 15] returned an IC50 of 2.6 nM.

In turn, `Cc1n[nH]c(Cl)c1-n1cc(C(C)C)c2cc(-c3cn(C)c(C(C)(C)O)n3)c(F)cc2c1=O` [WO2022070068, Example 16] came in with an IC50 of 0.51 nM.

`Cc1n[nH]c(Cl)c1-n1cc(C(C)C)c2cc(-c3nc(C(C)(C)O)n(C)n3)c(F)cc2c1=O` [WO2022070068, Example 17] returned an IC50 of 0.71 nM. The IC50 values of the last two molecules are within 1.5-fold of each other.

Molecule `Cc1ccnc(Cl)c1-n1cc(C(C)C)c2cc(-c3cn(C)c(C(C)(C)O)n3)c(F)cc2c1=O` [WO2022070068, Example 18] registered an IC50 of 2 nM. Against the preceding molecule, the IC50 is about 2.8-fold higher.

In turn, `Cc1ccnc(Cl)c1-n1cc(C(C)C)c2cc(-c3nc(C(C)(C)O)n(C)n3)c(F)cc2c1=O` [WO2022070068, Example 19] registered an IC50 of 2.5 nM.

For `CCn1nc(-c2cc3c(C(C)C)cn(-c4ccccc4C)c(=O)c3cc2F)nc1C(C)(C)O` [WO2022070068, Example 20], the IC50 worked out at 27 nM. This IC50 lies about 11-fold higher than the previous one.

As for `Cc1ccccc1-n1cc(C(C)C)c2cc(-c3cn(C)c(C(C)(C)O)n3)c(F)cc2c1=O` [WO2022070068, Example 23], the IC50 is 0.38 nM and 0.54 nM.

The molecule `CCn1nc(-c2cc3c(C(C)C)cn(-c4ccccc4C)c(=O)c3cc2F)nc1C(C)=O` [WO2022070068, Example 24] gave an IC50 of 6.2 nM.

`COc1cc(-n2cc(C(C)C)c3cc(-c4cn(C)c(C(C)(C)O)n4)c(F)cc3c2=O)c(C)cn1` [WO2022070068, Example 25] gave an IC50 of 1.2 nM.

As to `COc1cc(-n2cc(C(C)C)c3cc(-c4nc(C(C)(C)O)n(C)n4)c(F)cc3c2=O)c(C)cn1` [WO2022070068, Example 26], the IC50 came out at 1.2 nM.

Molecule `Cc1ccc(Cl)c(-n2cc(C(C)C)c3cc(-c4cn(C)c(C(C)(C)O)n4)c(F)cc3c2=O)n1` [WO2022070068, Example 27] came in with a half-inhibitory concentration (IC50) of 1.4 nM. The IC50 values of the last two molecules are within 1.5-fold of each other.

`CCn1nc(-c2cc3c(C(C)C)cn(-c4ccccc4C)c(=O)c3cc2F)nc1C(C)O` (stereo not given) [WO2022070068, Example 28] showed an IC50 of 19 nM.

Consider `Cc1ccccc1-n1cc(C(C)C)c2cc(-c3nc(C(C)(C)O)n(C)n3)c(F)cc2c1=O` [WO2022070068, Example 29], for which the IC50 was 0.57 nM and 0.64 nM.
